Test results as given in patent US20100041897A1, “Process for preparing a crystalline form of candesartan cilexetil” (CHEMO IBERICA, S.A., priority 2006, published 2010).
“Also recorded” adds a separate entry of the source.

Columns and labels:
[1] = Accelerated stability test at 80° C., impurities determined by HPLC; format: physicochemical; conditions: product of crystallization assay from acetone/water 3:1 v/v, 80° C. for 5 to 9 days
[2] = as above; format: physicochemical; conditions: for stability in accelerated stability test (in words): 80° C.
Experimental: In order to determine the influence of Form II on the stability of candesartan cilexetil Form I, samples with different proportions of Form II were prepared and subjected to an accelerated stability test at a temperature of 80° C. for different periods of time up to 9 days. Once the time period elapsed, the samples were analyzed by HPLC for the determination of the content of impurities, according to the method described in the Examples. Samples of candesartan cilexetil Form I containing different proportions of Form II were prepared from the products obtained in Example 2 and Preparative Example 1. The samples were exposed to an accelerated stability test at a temperature of 80° C. for different time periods up to 9 days. Once the time period has elapsed, the samples were analyzed by HPLC for the determination of the content of impurities. Impurities corresponding to the following retention times: 8.3, 10.4, 12.5, 14.1 and 16.4 minutes were identified in the HPLC chromatograms. The HPLC analysis of impurities was carried out in a HPLC system with UV detector (Waters Alliance), with a L1-type column according to US Pharmacopeia nomenclature, at a temperature of 30° C., with a flow rate of 1 ml/min, an injection volume of 10 μl, and an UV detector at 210 nm. The mobile phase was constituted by a mixture of solution A (v/v) (aqueous 0.1% v/v trifluoroacetic acid buffer) and acetonitrile. During the analysis the mobile phase contained 45% of Solution A and 55% of acetonitrile, except for the period comprised from minute 15 to minute 25 wherein a mixture of 5% Solution A and 95% acetonitrile was used. The sample was prepared dissolving 0.2 mg of the sample in 1 ml of mobile phase. The sum of the impurities refers to the sum of areas recorded in the HPLC chromatogram corresponding to the degradation impurities detected at the retention times above specified.

[3] = solid sample kept at 80° C. for 7 days
[4] = solid sample kept at 80° C. for 9 days

SMILES: CCOc1nc2cccc(C(=O)OC(C)OC(=O)OC3CCCCC3)c2n1Cc1ccc(-c2ccccc2-c2nnn[nH]2)cc1 (centres unmarked) [Assay 3, candesartan cilexetil]
- Stability ([1]; listed as 3): Poor

SMILES: CCOc1nc2cccc(C(=O)OC(C)OC(=O)OC3CCCCC3)c2n1Cc1ccc(-c2ccccc2-c2nnn[nH]2)cc1 (centres unmarked) [Assay 4, candesartan cilexetil]
- Stability ([1]; listed as 4): Good

SMILES: CCOc1nc2cccc(C(=O)OC(C)OC(=O)OC3CCCCC3)c2n1Cc1ccc(-c2ccccc2-c2nnn[nH]2)cc1 (centres unmarked) [Comparative Example 2, candesartan cilexetil]
- stability in accelerated stability test (in words) [2]: deficient stability

SMILES: CCOc1nc2cccc(C(=O)OC(C)OC(=O)OC3CCCCC3)c2n1Cc1ccc(-c2ccccc2-c2nnn[nH]2)cc1 (centres unmarked) [Example 1, candesartan cilexetil]
- Stability [1]: Poor

SMILES: CCOc1nc2cccc(C(=O)OC(C)OC(=O)OC3CCCCC3)c2n1Cc1ccc(-c2ccccc2-c2nnn[nH]2)cc1 (centres unmarked) [Form I (Example 2), 2-ethoxy-1-[[2′-(1H-tetrazol-5-yl)[1,1′-biphenyl]-4-yl]methyl]-1H-benzimidazole-7-carboxylic acid, 1-[[(cyclohexyloxy)carbonyl]oxy]ethyl ester]
- stability in accelerated stability test (in words) ([2]; listed as candesartan cilexetil Form I): good stability; also recorded: high stability
- Sum of impurities (% HPLC area) [2, 3]: 0.34 % HPLC area

SMILES: CCOc1nc2cccc(C(=O)OC(C)OC(=O)OC3CCCCC3)c2n1Cc1ccc(-c2ccccc2-c2nnn[nH]2)cc1 (centres unmarked) [Form I + 0.1% of Form II, candesartan cilexetil]
- Sum of impurities (% HPLC area) [2, 4]: 0.96 % HPLC area

SMILES: CCOc1nc2cccc(C(=O)OC(C)OC(=O)OC3CCCCC3)c2n1Cc1ccc(-c2ccccc2-c2nnn[nH]2)cc1 (centres unmarked) [Form I + 0.3% of Form II, candesartan cilexetil]
- Sum of impurities (% HPLC area) [2, 4]: 1.21 % HPLC area

SMILES: CCOc1nc2cccc(C(=O)OC(C)OC(=O)OC3CCCCC3)c2n1Cc1ccc(-c2ccccc2-c2nnn[nH]2)cc1 (centres unmarked) [Form I + 0.5% of Form II, candesartan cilexetil]
- Sum of impurities (% HPLC area) [2, 3]: 1.46 % HPLC area

SMILES: CCOc1nc2cccc(C(=O)OC(C)OC(=O)OC3CCCCC3)c2n1Cc1ccc(-c2ccccc2-c2nnn[nH]2)cc1 (centres unmarked) [Form I + 1.0% of Form II, candesartan cilexetil]
- Sum of impurities (% HPLC area) [2, 3]: 2.00 % HPLC area

SMILES: CCOc1nc2cccc(C(=O)OC(C)OC(=O)OC3CCCCC3)c2n1Cc1ccc(-c2ccccc2-c2nnn[nH]2)cc1 (centres unmarked) [Form I + 2.0% of Form II, candesartan cilexetil]
- Sum of impurities (% HPLC area) [2, 3]: 2.88 % HPLC area

SMILES: CCOc1nc2cccc(C(=O)OC(C)OC(=O)OC3CCCCC3)c2n1Cc1ccc(-c2ccccc2-c2nnn[nH]2)cc1 (centres unmarked) [Form I + 5.0% of Form II, candesartan cilexetil]
- Sum of impurities (% HPLC area) [2, 3]: 6.65 % HPLC area

SMILES: CCOc1nc2cccc(C(=O)OC(C)OC(=O)OC3CCCCC3)c2n1Cc1ccc(-c2ccccc2-c2nnn[nH]2)cc1 (centres unmarked) [Form I + 10.0% of Form II, candesartan cilexetil]
- Sum of impurities (% HPLC area) [2, 3]: 12.78 % HPLC area

SMILES: CCOc1nc2cccc(C(=O)OC(C)OC(=O)OC3CCCCC3)c2n1Cc1ccc(-c2ccccc2-c2nnn[nH]2)cc1 (centres unmarked) [Form I + 20.0% of Form II, candesartan cilexetil]
- Sum of impurities (% HPLC area) [2, 3]: 23.20 % HPLC area

SMILES: CCOc1nc2cccc(C(=O)OC(C)OC(=O)OC3CCCCC3)c2n1Cc1ccc(-c2ccccc2-c2nnn[nH]2)cc1 (centres unmarked) [Form II (Preparative Example 1), 2-ethoxy-1-[[2′-(1H-tetrazol-5-yl)[1,1′-biphenyl]-4-yl]methyl]-1H-benzimidazole-7-carboxylic acid, 1-[[(cyclohexyloxy)carbonyl]oxy]ethyl ester, reference compound]
- content of impurities ([2]; 80° C. for 5 days, calculated from the areas of the HPLC chromatogram): 60 % (w/w)
- stability in accelerated stability test (in words) ([2]; listed as Form II): unstable; also recorded: high instability
- Sum of impurities (% HPLC area) ([2]; solid sample kept at 80° C. for 5 days): 59.98 % HPLC area
